Measured values taken from patent publication US20230381142A1, “ANTILEISHMANIAL COMPOUNDS, COMPOSITIONS AND USE THEREOF” (TRUSTEES OF BOSTON UNIVERSITY, priority 2022, published 2023).
≈ marks a conversion by molar mass, not a printed value. Where two headings read alike, the source gives them in different places.

How the values were obtained:
[1] = test system: host THP-1 macrophages; assay: GSK inMac assay, host cell toxicity readout (LD MAC); type: cell-based, human; conditions: for THP-1 Host Cell CC50: host THP-1 cells; for EC50: Homo sapiens, THP-1, cytotoxicity against host THP-1 macrophages
Summary of the method: (§1)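 MAC EC50 reflects THP-1 host cell counts, measured within GSK's inMac L. donovani infection assay that also scores intracellular amastigotes and infected-cell percentage.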

[2] = test system: L. donovani intracellular amastigotes in B10R cells; assay: UCSD L. donovani infection assay (Assay Conditions D); type: cell-based; conditions: B10R cells; for L. donovani amastigotes EC75 (B10R cells): footnote d
Summary of the method: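 Compounds, either single-point at 10 μM or 10-point 2-fold series (3 technical, 2 biological replicates), were incubated 72 h at 37° C. with B10R host cells co-seeded with day-7 stationary L. donovani promastigotes (20:1). DAPI-stained nuclei imaging yielded intracellular parasite EC50 and host-cell CC50.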

[3] = test system: L. donovani intracellular amastigotes infecting THP-1 macrophages; assay: GSK intramacrophage L. donovani assay (LD AMMAC, inMac; Assay Conditions C); type: cell-based; conditions: Leishmania donovani
Summary of the method: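 EC50 values come from counting amastigotes per infected THP-1 macrophage (AMMAC). Parallel read-outs give percentage of infected cells per well (INFCELL) and a macrophage-number toxicity EC50 (MAC).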

[4] = GSK inMac assay, host cell toxicity readout (LD MAC); type: cell-based, human; conditions: human
Summary of the method: as §1

[5] = test system: HepG2 cells; assay: HepG2 cytotoxicity; type: cell-based; conditions: Homo sapiens; toxicity against HepG2 cells
Protocol: Given the literature precedents described above and the apparent narrow tolerance for R^3 substitutions observed in the primary screen compounds, a thorough and methodical assessment was undertaken of tolerated groups at the three points of diversity (R^1/R^2/R^3) for the core. At this stage of the project, all analogues were assessed using a battery of assays performed in-house at GlaxoSmithKline. For antileishmanial activity, GSK's inMac assay was utilized. This assay provides two readouts of compound potency: average number of intracellular amastigotes per infected cell (AMMAC) EC50, percentage of infected cells per well (INFCELL) EC50, as well as a toxicity output derived from the number of host cells (MAC EC50). In addition, compounds were assessed for toxicity against HepG2 cells (HEPG2 EC50). Here, AMMAC EC50 values were focused on for relative potency assessments. […] It should be noted that for all compounds assessed in this project, the measured toxicity against THP-1 macrophages either equaled or exceeded that of HepG2 hepatocytes, therefore the MAC SI is used here as the more conservative estimate of therapeutic index.

[6] = Kinetic aqueous solubility by CLND; type: physicochemical; conditions: kinetic from dmso stock, high-throughput CLND
Protocol: Solubility of compounds using ChemiLuminescent Nitrogen Detection (CLND) was measured as described. Solubility of compounds using Charged Aerosol Detection (CAD) was measured as described. Solubility of solid compounds in Fasted Simulated Intestinal Fluid (FaSSIF) was measured as described.

[7] = Artificial membrane permeability (AMP); type: in vitro ADME; conditions: PAMPA, pH 7.4
Protocol: Passive permeability of compounds via rate of permeation through an artificial phospholipid membrane at pH 7.4 was measured in a high-throughput format, in duplicate. A solution of 1.8% phosphatidylcholine in 1% decane was added to a 96-well Millicell filter plate along with 250 μL of 50 mM phosphate buffer, pH 7.4 on the donor side, and 100 μL of the same buffer solution on the receiver side. The assay plate was shaken for 45 minutes before adding test compounds. Test compounds were then added to the filter plate and then incubated at room temperature with shaking for three hours. The donor and receiver solutions were next transferred to a 384-well plate for analysis by LC/MS.

[8] = target: human serum albumin (Homo sapiens, UniProt P02768); assay: Human serum albumin (HSA) binding, chromatographic; type: in vitro ADME
Chain of human serum albumin (P02768 25-609): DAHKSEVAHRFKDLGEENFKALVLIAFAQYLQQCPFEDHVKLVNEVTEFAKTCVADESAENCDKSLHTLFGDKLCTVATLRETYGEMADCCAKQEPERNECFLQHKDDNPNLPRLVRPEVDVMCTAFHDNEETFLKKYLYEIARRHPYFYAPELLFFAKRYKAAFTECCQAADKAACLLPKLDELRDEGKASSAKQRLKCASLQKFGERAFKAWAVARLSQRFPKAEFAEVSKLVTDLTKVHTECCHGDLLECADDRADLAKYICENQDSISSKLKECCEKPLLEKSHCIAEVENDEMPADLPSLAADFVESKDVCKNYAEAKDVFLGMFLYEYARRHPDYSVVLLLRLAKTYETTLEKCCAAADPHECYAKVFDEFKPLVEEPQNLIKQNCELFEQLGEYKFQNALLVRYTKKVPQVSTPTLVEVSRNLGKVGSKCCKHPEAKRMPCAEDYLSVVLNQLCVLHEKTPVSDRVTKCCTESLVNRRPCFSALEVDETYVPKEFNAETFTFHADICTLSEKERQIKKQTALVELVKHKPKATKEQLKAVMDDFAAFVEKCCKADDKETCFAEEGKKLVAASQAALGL
Protocol: The percentage of compound bound to human serum albumin was measured using a chromatographic method as described. Briefly, each compound was assayed on an immobilized HSA column and gradient retention times measured, with chromatographic peak detection by UV. Each retention time was then converted to a % HSA bound value using a calibration set of compounds with a known % HSA binding.

[9] = Property forecast index (PFI = ChromLogD7.4 + aromatic rings); type: physicochemical
Protocol: At the outset of the project, compound 1 was evaluated against GSK's established criteria for antileishmanial compound advancement (Table 2). Some of these assessments were performed on racemic 1, while chiral separation was also pursued of the 1 racemate to determine the active enantiomer. […] Based on this promising profile, it progressed into medicinal chemistry optimization to better understand structure-activity relationships (SAR) toward improved potency, as well as structure-property relationships (SPR) with an eye toward reducing PFI and plasma protein binding.

[10] = THP-1 cells, values marked c, read-out: L. donovani amastigotes EC50 (THP-1 cells)
[11] = footnote c, read-out: THP-1 Host Cell CC50
[12] = values marked c: THP-1 cells, read-out: L. donovani amastigotes EC50 (μM, THP-1 or B10R cells)
[13] = growth inhibition of L. donovani intracellular amastigotes infecting THP-1 macrophages, read-out: LD AMMAC EC50
[14] = aqueous (not further specified)

EC50 [3, 13] | solubility [6] | Papp at 3 h [7] | HSA Binding [8] | PFI [9] | Structure (SMILES) | EC50 [1] | EC50 [5] | also measured
 |  |  |  |  | CCn1cc(N2C(=O)c3[nH]nc(CC(C)C)c3C2c2ccccc2C(F)(F)F)cn1 (centres unmarked) [BUCMD00671] |  |  | THP-1 Host Cell CC50 [1]: >10 µM; L. donovani amastigotes EC75 (μM, B10R cells) [2]: >5 µM
 |  |  |  |  | CC(C)Cc1n[nH]c2c1C(c1ccc(F)c(F)c1)N(c1cncc(F)c1)C2=O (centres unmarked) [BUCMD00701] |  |  | THP-1 Host Cell CC50 [1]: >10 µM; L. donovani amastigotes EC75 (μM, B10R cells) [2]: >5 µM
 |  |  |  |  | CC(C)Cc1n[nH]c2c1C(c1ccc(F)cc1)N(c1ccc3ncnn3c1)C2=O (centres unmarked) [CMLD010888] |  |  | EC50 [3, 10]: 5 µM; CC50 [4, 11]: > 50 µM; L. donovani amastigotes EC75 (B10R cells) [2]: 2.3 µM
 |  |  |  |  | C#CCn1nc2c(c1CC(C)C)C(c1ccc(F)cc1)N(c1ccc(OC)cc1)C2=O (centres unmarked) [CMLD010986] |  |  | EC50 [3, 12]: 3.2 µM; CC50 ([4]; host THP-1 cells): 25.1 µM; L. donovani amastigotes EC75 (μM, B10R cells) [2]: >10 µM
 |  |  |  |  | C#CCn1nc(CC(C)C)c2c1C(=O)N(c1ccc(OC)cc1)C2c1ccc(F)cc1 (centres unmarked) [CMLD010987] |  |  | EC50 [3, 10]: 1.6 µM; CC50 [4, 11]: 20 µM; L. donovani amastigotes EC75 (B10R cells) [2]: 4.0 µM
 |  |  |  |  | CC(C)Cc1n[nH]c2c1C(c1ccc(F)cc1)N(CCN1CCCC1)C2=O (centres unmarked) [CMLD011072] |  |  | EC50 [3, 10]: 15.9 µM; CC50 [4, 11]: > 50 µM; L. donovani amastigotes EC75 (B10R cells) [2]: >10 µM
 |  |  |  |  | CC(C)Cc1n[nH]c2c1C(c1ccsc1)N(c1ccc3c(c1)OCO3)C2=O (centres unmarked) [CMLD011136] |  |  | EC50 [3, 12]: 5 µM; CC50 ([4]; host THP-1 cells): ≥ 50.1 µM; L. donovani amastigotes EC75 (μM, B10R cells) [2]: 3.6 µM
 |  |  |  |  | COc1ncc(N2C(=O)c3[nH]nc(CC(C)C)c3C2c2ccc(F)cc2)cc1C (centres unmarked) [CMLD011555] |  |  | EC50 [3, 12]: 10 µM; CC50 ([4]; host THP-1 cells): 20 µM; L. donovani amastigotes EC75 (μM, B10R cells) [2]: 1.7 µM
 |  |  |  |  | CC(C)Cc1n[nH]c2c1C(c1ccc(F)cc1)N(c1ccc(N3CCCC3=O)cc1)C2=O (centres unmarked) [CMLD011560] |  |  | EC50 [3, 12]: 4 µM; CC50 ([4]; host THP-1 cells): 20 µM; L. donovani amastigotes EC75 (μM, B10R cells) [2]: 1.0 µM
2.5 µM | 15 µM (≈ 5.9 µg/mL) | 10 ×10⁻⁶ cm/s | 98.0% | 9.1 | COc1ccc(N2C(=O)c3[nH]nc(CCC(C)C)c3C2c2ccc(F)cc2)cc1 (centres unmarked) [Compound 9] | 31.6 µM | 79.4 µM | 
2.5 µM | 36 µM (≈ 14.2 µg/mL) | 17 ×10⁻⁶ cm/s | 97.4% | 9.0 | COc1ccc(N2C(=O)c3[nH]nc(CC(C)(C)C)c3C2c2ccc(F)cc2)cc1 (centres unmarked) [Compound 10] | 25.1 µM | 39.8 µM | 
0.1 µM |  |  |  | 8.4 | CCCCc1n[nH]c2c1C(c1ccc(F)cc1)N(c1ccc(OC)cc1)C2=O (centres unmarked) [Compound 11] | 2.5 µM |  | EC50 ([3]; THP-1, read-out: potency (antileishmanial, text to Table 3)): ~0.3 µM
1.6 µM | 135 µM (≈ 51 µg/mL) | 41 ×10⁻⁶ cm/s | 97.5% | 8.1 | C=CCCc1n[nH]c2c1C(c1ccc(F)cc1)N(c1ccc(OC)cc1)C2=O (centres unmarked) [Compound 12] | 3.2 µM | 50.1 µM | 
0.5 µM | 52 µM (≈ 20.4 µg/mL) | 37 ×10⁻⁶ cm/s | 96.8% | 8.5 | C=C(C)CCc1n[nH]c2c1C(c1ccc(F)cc1)N(c1ccc(OC)cc1)C2=O (centres unmarked) [Compound 13] | 1.6 µM | 50.1 µM | 
6.3 µM | 17 µM (≈ 6.89 µg/mL) | 27 ×10⁻⁶ cm/s | 97.9% | 8.9 | C=C(C)CCCc1n[nH]c2c1C(c1ccc(F)cc1)N(c1ccc(OC)cc1)C2=O (centres unmarked) [Compound 14] | 20 µM | 50.1 µM | 
6.3 µM | 6 µM (≈ 2.56 µg/mL) | 36 ×10⁻⁶ cm/s | 98.0% | 9.7 | COc1ccc(N2C(=O)c3[nH]nc(CCc4ccccc4)c3C2c2ccc(F)cc2)cc1 (centres unmarked) [Compound 15] | 25.1 µM | 50.1 µM | 
5 µM | 17 µM (≈ 7.47 µg/mL) | 13 ×10⁻⁶ cm/s | 97.8% | 10.6 | COc1ccc(N2C(=O)c3[nH]nc(-c4ccc5c(c4)CCC5)c3C2c2ccc(F)cc2)cc1 (centres unmarked) [Compound 16] | 7.9 µM | 25.1 µM | 
4 µM | < 1 µM | 34 ×10⁻⁶ cm/s | 98.0% | 11.4 | COc1ccc(N2C(=O)c3[nH]nc(-c4ccc(CC(C)C)cc4)c3C2c2ccc(F)cc2)cc1 (centres unmarked) [Compound 17] | 7.9 µM | 15.8 µM | 
5 µM |  | 28.5 ×10⁻⁶ cm/s | 95.6% | 7.1 | CC(C)Cc1n[nH]c2c1C(c1ccc(F)cc1)N(c1ccc(O)cc1)C2=O (centres unmarked) [Compound 18] | 39.8 µM | > 100 µM | solubility [6, 14]: ≥ 430 µM
1.6 µM |  | 25 ×10⁻⁶ cm/s | 97.5% | 8.9 | CCOc1ccc(N2C(=O)c3[nH]nc(CC(C)C)c3C2c2ccc(F)cc2)cc1 (centres unmarked) [Compound 19] | 20 µM | 50.1 µM | solubility [6, 14]: 38 µM (≈ 15 µg/mL)
3.2 µM |  | 29 ×10⁻⁶ cm/s | 98.1% | 9.8 | CC(C)Cc1n[nH]c2c1C(c1ccc(F)cc1)N(c1ccc(OC(F)(F)F)cc1)C2=O (centres unmarked) [Compound 20] | 7.9 µM | 25.1 µM | solubility [6, 14]: 5 µM (≈ 2.17 µg/mL)
4 µM |  | < 1 ×10⁻⁶ cm/s | 97.4% | 9.7 | CCc1ccc(N2C(=O)c3[nH]nc(CC(C)C)c3C2c2ccc(F)cc2)cc1 (centres unmarked) [Compound 22] | 20 µM | 50.1 µM | solubility [6, 14]: 9 µM (≈ 3.4 µg/mL)
6.3 µM |  | 12 ×10⁻⁶ cm/s | 97.7% | 8.8 | CC(C)Cc1n[nH]c2c1C(c1ccc(F)cc1)N(c1ccc(F)cc1)C2=O (centres unmarked) [Compound 23] | 25.1 µM | 50.1 µM | solubility [6, 14]: 61 µM (≈ 22.4 µg/mL)
1.3 µM |  | 32 ×10⁻⁶ cm/s | 97.9% | 9.7 | CC(C)Cc1n[nH]c2c1C(c1ccc(F)cc1)N(c1ccc(Br)cc1)C2=O (centres unmarked) [Compound 24, 5-(4-bromophenyl)-4-(4-fluorophenyl)-3-isobutyl-4,5-dihydropyrrolo[3,4-c]pyrazol-6(1H)-one] | 15.8 µM | 39.8 µM | solubility [6, 14]: 9 µM (≈ 3.85 µg/mL)
10 µM |  | 13 ×10⁻⁶ cm/s | 97.9% | 10.5 | CC(C)Cc1n[nH]c2c1C(c1ccc(F)cc1)N(c1ccc(C(C)(C)C)cc1)C2=O (centres unmarked) [Compound 25] | > 50 µM | 50.1 µM | solubility [6, 14]: < 1 µM
2.5 µM |  | < 0.3 ×10⁻⁶ cm/s | 96.3% | 8.1 | CC(C)Cc1n[nH]c2c1C(c1ccc(F)cc1)N(c1ccc(-n3ccnc3)cc1)C2=O (centres unmarked) [Compound 28] | > 50 µM | > 100 µM | 
